Measured values reported in patent publication US20220396819A1, “METHOD FOR PRODUCING PEPTIDE HAVING PHYSIOLOGICAL ACTIVITY, AND PEPTIDE COMPRISING SHORT LINKER” (priority 2019, published 2022).
Positions of bridges follow the written chain, without caps; N, C: chain ends. No end group written: not given here.

How the values were obtained:
Type in all cases: cell-based
[1] = tested on: HuCCT1 cells; assay: Wound healing effect, scratch in HuCCT1 cell culture; settings: 33 ng/mL HGF or 100 ng/mL peptide, N=4, FIG. 16
Experimental: HGF has been reported to promote cell wound healing ability by activating Met (K. Ito, et al. Nat. Commun. 6, 6373, 2015). Therefore, HuCCT1 cell culture was used to evaluate whether the HGF-PAS dimer peptide would promote wound healing as HGF.
To 96-well cell culture plates, 50,000 HuCCT1 cells suspended in RPMI 1640 medium with 10% FBS were added per well and incubated overnight under the conditions of 37° C. and 5% CO2. Cells in the center of the culture wells were scraped using a 1000 μL Thermo Scientific ART chip (Thermo Fisher Scientific) and washed with low serum medium (RPMI 1640 medium with 0.5% FBS). Low serum medium containing 33 ng/mL HGF or 100 ng/mL AET-PAS-aMD4dY-PEG11 was added, and the cells were cultured under the conditions of 37° C. and 5% CO2. BioStudio-T (Nikon Corporation) was used for cell observation, and cells were automatically photographed every hour. The rate of wound healing (μm/h) was calculated as ((wound width 1 hour after wound creation)−(wound width 7 hours after wound creation))/6 (N=4).

[2] = tested on: HuCCT1 cells; assay: Cell proliferation promoting activity in HuCCT1 cell culture; settings: HGF 35 ng/mL or peptide 40 ng/mL, 5 days, N=3, FIG. 12
Experimental: HGF has been reported to promote cell proliferation by activating Met (K. Ito, et al. Nat. Commun. 6, 6373, 2015). Therefore, HuCCT1 cell culture was used to evaluate whether the HGF-PAS dimer peptide had the same activity of promoting cell proliferation as HGF.
RPMI 1640 medium (Nacalai Tesque) containing 5% FBS was added to a 24-well cell culture plate, and HuCCT1 cells were seeded at 5,000 cell/well. HGF at 35 ng/mL or AET-PAS-aMD4dY-PEG11 at 40 ng/mL was added, and the cells were cultured at 37° C. and 5% CO2 for 5 days. The cells were detached with 0.25% Trypsin/EDTA (Thermo Fisher Scientific) and the number of cells was quantified with Countess Automated Cell Counter (Thermo Fisher Scientific) (N=3).

[3] = tested on: HuCCT1 cells; assay: Cell migration activity, Transwell, HuCCT1 cells; settings: 100 ng/mL HGF or 200 ng/mL peptide, 24 hours, FIGS. 13, 14
Experimental: HGF has been reported to promote cell migration ability by activating Met (K. Ito, et al. Nat. Commun. 6, 6373, 2015). Therefore, HuCCT1 cell culture was used to evaluate whether the HGF-PAS dimer peptide had the same activity of promoting cell migration as HGF.
To Transwell inserts for 24-well (pore size 3.0 m, Corning), 20,000 HuCCT1 cells suspended in low serum medium (RPMI 1640 medium with 0.5% FBS) were added. A low serum medium containing 100 ng/mL HGF or 200 ng/mL AET-PAS-aMD4dY-PEG11 was added to the lower layer. After culturing for 24 hours under the conditions of 37° C. and 5% CO2, the Transwell inserts were washed 3 times with PBS and cell-fixed and stained with methanol containing 0.5% Crystal Violet (Nacalai Tesque) for 10 minutes. Immobilized and stained Transwell inserts were washed with distilled water. The cells inside the inserts were removed with a scraper. The cells migrated to the outside of the inserts and stained were photographed in the bright field observation mode of a BZ-X microscope (Keyence).
The migration ability was calculated as (area of stained region)/(insert area) and as a relative value (Relative migration efficiency) to the value of the non-added group (Mock) (N=2).

[4] = tested on: receptor tyrosine kinase (RTK); assay: RTK specificity, Proteome Profiler Human Phospho-RTK Array Kit, HEK293E cells; settings: 200 ng/mL peptide or 100 ng/mL HGF, 10 minutes, FIG. 10
Experimental: The receptor tyrosine kinase (RTK) specificity of the HGF-PAS dimer peptide was evaluated using Proteome Profiler Human Phospho-RTK Array Kit (R&D Systems).
HEK293E cells confluent in a 10 cm cell culture dish were starved by culturing for 24 hours in D-MEM medium containing 0.5% FBS (Thermo Fisher Scientific) and penicillin-streptomycin (Nacalai Tesque). The starved HEK293E cells were stimulated with 200 ng/mL AET-PAS-aMD4dY-PEG11 for 10 minutes. As a positive control, 100 ng/mL HGF was similarly stimulated for 10 minutes. As a negative control, PBS was added and stimulated for 10 minutes (Mock group). After removing the medium and washing the cells once with PBS, the cells were lysed by adding 1 mL of Lysis buffer 17 containing a Protease inhibitor cocktail (Nacalai Tesque). The lysate solution was centrifuged at 14,000 G for 5 minutes to obtain the supernatant as a lysate.
The lysate was analyzed using Proteome Profiler Human Phospho-RTK Array Kit. Molecular Imager ChemiDoc XRS System (Bio-Rad) was used to detect chemiluminescence.

Substance	improvement of the rate of wound healing [1]	proliferation ability relative to the non-added group (Mock) [2]	cell migration [3]	RTK phosphorylation (specificity) [4]
AETCRQFNRRTHEVWNLDCGAAPAAPAPAAPAAPAPAAPAAPGCRQFNRRTHEVWNLDC (disulfide 4-19, 44-59; also: PEG11) [AET-PAS-aMD4dY-PEG11]	about 1.6 times	about 2.5 times	promoted cell migration	Met was specifically phosphorylated
HGF: recombinant human HGF (rhHGF, R&D Systems)	about 1.6 times	about 2.5 times	proportion of the cells migrating to the lower part of the Transwell inserts increased	Met was specifically phosphorylated
